In brackets after ≈: the same amount, converted by molar mass.
Columns and labels:
Veillonella = assay: In vitro MIC determination, clinical anaerobic strains; assay type: cell-based; details: 23 clinical strains, GAM broth, 72 hours anaerobic incubation at 35° C.
Experimental: (§1) Experimental strains: isolated from clinical specimens, and species identification were conducted.
(§2) Bacilli preparation: 4˜5 bacteria colonies with same pattern selected from anaerobic GAM plate were inoculated in GAM broth with inoculating loop. The bacteria was incubated at 35° C. under anaerobic condition until a slight turbidity was attained, and adjusted by means of sterilized saline (deoxygenated) so as to attain a turbidity equivalent to the No. 0.5 McFarland turbidity tube, then diluted with GAM broth (at 1:200) for later use.
(§3) MIC (Minimum Inhibitory Concentration) determination: the testing drugs and control drugs were diluted with GAM broth to different concentrations in the test tubes, followed by addition of equal volume of diluted Bacilli (at 1:200), MIC values were read 72 hours after anaerobic incubation at 35° C.

Peptostreptococcus = assay: as above; assay type: cell-based; details: Peptostreptococcus, 35 clinical strains, GAM broth, 72 hours anaerobic incubation at 35° C.
Experimental: as §1, §2, §3

Fusobacterium nucleatum = assay: as above; assay type: cell-based; details: 11 clinical strains, GAM broth, 72 hours anaerobic incubation at 35° C.
Experimental: as §1, §2, §3

Bacteroides = assay: as above; assay type: cell-based; details: 40 clinical strains, GAM broth, 72 hours anaerobic incubation at 35° C.
Experimental: as §1, §2, §3

Clostridium = assay: as above; assay type: cell-based; details: 6 clinical strains, GAM broth, 72 hours anaerobic incubation at 35° C.
Experimental: as §1, §2, §3

[1] = system: peptostreptococcus (including Escherichia coli); assay: Abdominal infection model in mice, ED50; assay type: in vivo, Kunming white mice; details: death observed 7 days
Experimental: (§4) Kunming white mice, body weight of 20±2 g, half males and half females. 10 mice in each dose group with half females and half males. Abdominal infection models were prepared with the entire animal (mice) and treatments were conducted with the testing drugs. The therapeutical efficacy was observed and expressed as ED50 (half effective dose). Drugs were administered twice by oral gavage (administered immediately after infection for one and 6 hours after infection for the other one). The death status of animals was observed consecutively for seven days after infection and being treated.

[2] = system: bacteroides (including Escherichia coli) infection; assay: Abdominal infection model in mice, ED50; assay type: in vivo, Kunming white mice; details: death observed 7 days
Experimental: as §4

mice [3] = assay: Hypnotic effect of intravenous injection in mice (righting reflex); assay type: in vivo; details: both, mouse, in vivo, iv, 160 mg/kg, 30 min
Experimental: White mice, half males and half females, fasted for eight hours. The disappearance of righting reflex in mice was observed. The number of animals who lost their righting reflex was recorded in 30 minutes after drug administration.

mice [4] = assay: Effects on spontaneous activities in mice; assay type: in vivo; details: for spontaneous activity compared with the vehicle control group: recorded at 0.5, 1, 2, 3 and 4 hours
Experimental: Chlorpromazine was administered at dose of […] in the positive control group, and the same volume of propylene glycol containing 0.9% sodium chloride injection was administered in the vehicle control group. Spontaneous activity was recorded at 0.5, 1, 2, 3 and 4 hours after drug administration. The injection volume was 0.2 ml/10 g and the administration rate was 0.2 ml/10 sec.

Kunming mice [5] = assay: Acute toxicology test, LD50 in mice (Bliss method); assay type: in vivo; details: oral gavage; for Number of dead animals: 10 animals
Kunming mice [6] = assay: Acute toxicology test, LD50 in mice (Bliss method); assay type: in vivo; details: for Number of dead animals: 10 animals
Experimental: Kunming mice, half males and half females, with body weights of 18˜22 g, were administered the testing drug solution by injection 8 hours after fasting. The death status of animals was consecutively observed for 14 days after administration.

mice [7] = assay: Effect on the coordination of balancing in mice; assay type: in vivo; details: intravenous injection
Experimental: Experiments were conducted in 9 administration groups, L-, D- and racemic ornidazole were administered to them at doses of 40, 80 and 160 mg/kg. Positive control group received chlorpromazine at a dose of 3 mg/kg.

mice [8] = assay: Effect on the hypnotic effect induced by sodium thiopental in mice; details: 40 mg/kg sodium thiopental i.p. 30 minutes later
Experimental: The same volume of 0.9% sodium chloride injection containing propylene glycol was administered in the vehicle control group. 30 minute after drug administration, 40 mg/kg of sodium thiopental was administered to mice by intraperitoneal injection. The time for the loss of righting reflex and the time for the recovery were recorded. The injection volume was 0.2 ml/10 g, the administration rate was 0.2 ml/10 sec.

With `Cc1ncc([N+](=O)[O-])n1CC(O)CCl` (racemic) [racemic ornidazole, ornidazole] the “MIC Range” value (Veillonella) was 2.0~16.0 mg/L, the MIC50 (Veillonella; Veillonella, read-out: MIC50) was 4 µg/mL (≈ 18.2 µM) and the MIC90 (Veillonella; Veillonella, read-out: MIC90) was 8 µg/mL (≈ 36.4 µM). The MIC50 (Peptostreptococcus; read-out: MIC50) was 4 µg/mL (≈ 18.2 µM), the MIC90 (Peptostreptococcus; read-out: MIC90) was 8 µg/mL (≈ 36.4 µM) and the “MIC Range” value (Fusobacterium nucleatum) was 1.0~32.0 mg/L. For the same molecule, the MIC50 (Fusobacterium nucleatum; Fusobacterium nucleatum, read-out: MIC50) was 2 µg/mL (≈ 9.11 µM), the MIC90 (Fusobacterium nucleatum; Fusobacterium nucleatum, read-out: MIC90) was 32 µg/mL (≈ 146 µM) and the “MIC Range” value (Bacteroides) was 2.0~16.0 mg/L. The MIC50 (Bacteroides; Bacteroides, read-out: MIC50) was 4 µg/mL (≈ 18.2 µM), the MIC90 (Bacteroides; Bacteroides, read-out: MIC90) was 8 µg/mL (≈ 36.4 µM) and the “MIC Range” value (Clostridium) was 1.0~2.0 mg/L. For the same molecule, the MIC50 (Clostridium; Clostridium, read-out: MIC50) was 2 µg/mL (≈ 9.11 µM), the MIC90 (Clostridium; Clostridium, read-out: MIC90) was 2 µg/mL (≈ 9.11 µM) and the ED50 ([1]; Peptostreptococcus, oral gavage twice (immediately and 6 hours after infection), read-out: ED50 (half effective dose)) was 49.1 mg/kg. For the same molecule, the “95% CI of ED50” value ([1]; oral gavage twice) was 61.1˜39.4 mg/kg, the ED50 ([2]; Bacteroides, oral gavage twice (immediately and 6 hours after infection), read-out: ED50 (half effective dose)) was 39.9 mg/kg and the “95% CI of ED50” value ([2]; oral gavage twice) was 51.9˜30.7 mg/kg. The “number of mice with loss in righting reflex” value (mice [3]) was 6 mice, the “recovery of spontaneous activity” value (mice [4]; 40 mg/kg intravenous) was “gradually become normal after 2 hours” and the “spontaneous activity compared with the vehicle control group” value (mice [4]; 40 mg/kg intravenous) was “reduced significantly 1 hour after administration”. For the same molecule, the “recovery of spontaneous activity” value (mice [4]; 80 mg/kg intravenous) was “gradually become normal after 3 hours”, the “spontaneous activity compared with the vehicle control group” value (mice [4]; 80 mg/kg intravenous) was “reduced significantly at 0.5, 1 and 2 hours” and the “recovery of spontaneous activity” value (mice [4]; 160 mg/kg intravenous) was “gradually become normal after 4 hours”. The “spontaneous activity compared with the vehicle control group” value (mice [4]; 160 mg/kg intravenous) was “reduced significantly at 0.5, 1, 2 and 3 hours”, the “Number of dead animals” value (Kunming mice [5]; 655.4 mg/kg) was 0 and the “Number of dead animals” value (Kunming mice [5]; 819.2 mg/kg) was 2. The “Number of dead animals” value (Kunming mice [5]; 1024 mg/kg) was 7, the Death rate (Kunming mice [5]; 1280 mg/kg) was 90% and the “Number of dead animals” value (Kunming mice [5]; 1280 mg/kg) was 9. For the same molecule, the “Probability units (Y)” value (Kunming mice [5]; 1600 mg/kg) was 7.19, the Death rate (Kunming mice [6]; intraperitoneal, 887.4 mg/kg) was 0% and the “Probability units (Y)” value (Kunming mice [6]; intraperitoneal, 887.4 mg/kg) was 3.39. The “Number of dead animals” value (Kunming mice [6]; intraperitoneal, 887.4 mg/kg) was 0, the Death rate (Kunming mice [6]; intraperitoneal, 1044 mg/kg) was 30% and the “Probability units (Y)” value (Kunming mice [6]; intraperitoneal, 1044 mg/kg) was 4.42. For the same molecule, the “Number of dead animals” value (Kunming mice [6]; intraperitoneal, 1044 mg/kg) was 3, the Death rate (Kunming mice [6]; intraperitoneal, 1228 mg/kg) was 80% and the “Probability units (Y)” value (Kunming mice [6]; intraperitoneal, 1228 mg/kg) was 5.46. The “Number of dead animals” value (Kunming mice [6]; intraperitoneal, 1228 mg/kg) was 8, the Death rate (Kunming mice [6]; intraperitoneal, 1445 mg/kg) was 100% and the “Probability units (Y)” value (Kunming mice [6]; intraperitoneal, 1445 mg/kg) was 6.49. For the same molecule, the “Number of dead animals” value (Kunming mice [6]; intraperitoneal, 1445 mg/kg) was 10, the Death rate (Kunming mice [6]; intraperitoneal, 1700 mg/kg) was 100% and the “Probability units (Y)” value (Kunming mice [6]; intraperitoneal, 1700 mg/kg) was 7.52. For the same molecule, the “Number of dead animals” value (Kunming mice [6]; intraperitoneal, 1700 mg/kg) was 10, the Death rate (Kunming mice [6]; intravenous, 243 mg/kg) was 0% and the “Probability units (Y)” value (Kunming mice [6]; intravenous, 243 mg/kg) was 3.22. The “Number of dead animals” value (Kunming mice [6]; intravenous, 243 mg/kg) was 0, the Death rate (Kunming mice [6]; intravenous, 270 mg/kg) was 30% and the “Probability units (Y)” value (Kunming mice [6]; intravenous, 270 mg/kg) was 4.06. For the same molecule, the “Number of dead animals” value (Kunming mice [6]; intravenous, 270 mg/kg) was 3, the Death rate (Kunming mice [6]; intravenous, 300 mg/kg) was 50% and the “Probability units (Y)” value (Kunming mice [6]; intravenous, 300 mg/kg) was 4.90. The “Number of dead animals” value (Kunming mice [6]; intravenous, 300 mg/kg) was 5, the Death rate (Kunming mice [6]; intravenous, 333 mg/kg) was 50% and the “Probability units (Y)” value (Kunming mice [6]; intravenous, 333 mg/kg) was 5.73. For the same molecule, the “Number of dead animals” value (Kunming mice [6]; intravenous, 333 mg/kg) was 5, the Death rate (Kunming mice [6]; intravenous, 370 mg/kg) was 100% and the “Probability units (Y)” value (Kunming mice [6]; intravenous, 370 mg/kg) was 6.57. The “Number of dead animals” value (Kunming mice [6]; intravenous, 370 mg/kg) was 10, the Death rate (Kunming mice [6]; oral gavage, 655.4 mg/kg) was 0% and the “Probability units (Y)” value (Kunming mice [6]; oral gavage, 655.4 mg/kg) was 3.20. The Death rate (Kunming mice [6]; oral gavage, 819.2 mg/kg) was 20%, the “Probability units (Y)” value (Kunming mice [6]; oral gavage, 819.2 mg/kg) was 4.20 and the Death rate (Kunming mice [6]; oral gavage, 1024 mg/kg) was 70%. For the same molecule, the “Probability units (Y)” value (Kunming mice [6]; oral gavage, 1024 mg/kg) was 5.19, the “Probability units (Y)” value (Kunming mice [6]; oral gavage, 1280 mg/kg) was 6.19 and the Death rate (Kunming mice [6]; oral gavage, 1600 mg/kg) was 100%. The “Number of dead animals” value (Kunming mice [6]; oral gavage, 1600 mg/kg) was 10, the “effect on the coordination and balance (number of falling animals)” value (mice [7]; 160 mg/kg) was “significant effect” and the “effect on the coordination and balance, compared with the vehicle control group” value (mice [7]; doses of 40 and 80 mg/kg) was “no significant effect”. The “sleep latency induced by sodium thiopental, compared with the vehicle control group” value (mice [8]; 40 mg/kg intravenous) was “no significant reduction” and the “sleep latency induced by sodium thiopental, compared with the vehicle control group” value (mice [8]; 80 mg/kg intravenous) was “significantly reduced”.
